Read-outs that look alike come from different tables or passages of the source. Marks after values point to notes of the source that are not given here.
Columns and labels:
Aβ40 and Aβ42 [1] = assay: Total brain Aβ by sandwich ELISA, J20 APP transgenic mice; assay type: in vivo; details: for Total brain Aβ: subcutaneous immunization in CFA + pertussis toxin
Procedure: FIG. 1: Effect of subcutaneous immunization on total Aβ levels in the brain. To quantify amyloid burden, the right hemisphere was extracted in 5.0 M guanidinium-chloride (pH 8) for 3 hours at room temperature. Dilutions were used to measure levels of Aβ40 and Aβ42 by sandwich enzyme-linked immunosorbent assays (ELISA).
Amyloid quantification. To quantify amyloid burden, the right hemisphere was extracted in 5.0 M guanidinium-chloride (pH 8) for 3 hours at room temperature. Dilutions were used to measure levels of insoluble (amyloid-associated) […] and Aβ42 by sandwich enzyme-linked immunosorbent assays (ELISA). […] Brains were frozen in the presence of OCT paraformaldehyde, cut to 14-μm longitudinal sections used for immunohistological staining and amyloid fibril quantification. […] Images (magnification ×20) from these sections were collected from a 3CCD color video camera and analyzed with appropriate software (NIH; Imaging Research). The amount of amyloid fibril was expressed as a percentage per mm^2 hippocampal region as measured by the software.

Aβ fibrils = assay type: in vivo, mice; details: for % Area of thioflavin positive Aβ plaques (hippocampus): subcutaneous immunization in CFA + pertussis toxin
Procedure: Amyloid quantification. To quantify amyloid burden, the right hemisphere was extracted in 5.0 M guanidinium-chloride (pH 8) for 3 hours at room temperature. Dilutions were used to measure levels of insoluble (amyloid-associated) […] and Aβ42 by sandwich enzyme-linked immunosorbent assays (ELISA). To measure Aβ fibrils, the left hemisphere was fixed in 4% […] O/N followed by 4.5% sucrose for 4 hours then 20% Sucrose for O/N at 4° C. Brains were frozen in the presence of OCT paraformaldehyde, cut to 14-μm longitudinal sections used for immunohistological staining and amyloid fibril quantification. Well-defined hippocampal regions (Bregma −1.34), were selected for quantification of the amount of amyloid fibril in plaques using thioflavin-S staining. Images (magnification ×20) from these sections were collected from a 3CCD color video camera and analyzed with appropriate software (NIH; Imaging Research). The amount of amyloid fibril was expressed as a percentage per mm^2 hippocampal region as measured by the software.

[2] = system: hippocampus of APP tg mice; assay: Immunohistochemistry of hippocampus in immunized animals; assay type: in vivo; details: for activated microglia (CD11b) in hippocampus: immunization in CFA, APP tg mice
Procedure: Immunohistology. The staining was performed utilizing the following markers: T-cells (CD3; BD Biosciences:553057), microglia/macrophages (CD11b; Serotec:MCA74G), (C-MFR; Cymbus Biotech:21080096), IFN-γ (Pharmingen: 559065), IL-10 (Pharmingen:559063) and TGF-β (RD:AB-20-PB). Anti-amyloid antibodies (R1282) were a gift of Dennis Seloke. Brain sections were further subject to Haematoxylin staining. Sections were evaluated in a blinded manner, and controls included use of isotype-matched mAbs as previously described. For each treatment the quantification was done from the hippocampal region of three different brain sections (the same region, Bregma −1.34, that were used for ThS staining). The results are expressed as the mean of the labeled cells for each marker.

J20 APP transgenic mice = assay type: in vivo; details: for occurrence of EAE: immunization in CFA + pertussis toxin
Procedure: Induction and clinical evaluation of EAE in APP+ mice. (B6D2)F1 or (B6XSJL)F1 APP+ (WT or B-cell deficient μMT) and non-tg littermates were immunized in the hind footpads with 100 μg MOG(35-55), PLP 139-151 or 100 μg β-amyloid peptide (1-40) in CFA. Immediately thereafter and again 48 hours later mice received an i.p. injection containing 150 ng of pertussis toxin in 0.2 ml PBS. Animals were monitored for symptoms of EAE beginning 7 days after immunization and scored as follows: 0, no disease; 1, tail paralysis; 2, hind limb weakness; 3, hind limb paralysis; 4, hind limb plus forelimb paralysis; and 5, moribund.
Nasal vaccination. Glatiramer acetate: 25 μg was given on days 1, 2, 4 and 5 the first week followed by a weekly boost for six weeks. IVX-908: 1 μg/mouse was given on days 1 and 5 the first week followed by a weekly boost for six weeks. BSA+IVX-908: 25 μg of BSA plus 1 ug IVX-908 were given on days 1 and 5 the first week, and 25 μg of BSA alone was given on days 2 and 4, followed by six weekly boosts of the combination of BSA+IVX-908. GA+IVX-908: 25 μg of GA plus 1 μg IVX-908 were given on days 1 and 5 the first week, and 25 μg of GA alone was given on days 2 and 4, followed by six weekly boosts of the combination of GA+IVX-908.

Aβ = assay: Anti-Aβ antibody level (IgG, OD) in immunized J20 APP transgenic mice; assay type: in vivo
Procedure: Antibody levels were measured against Aβ in animals immunized with MOG or PLP to determine if there was cross reactivity with Aβ and Aβ antibody titers as compared to those from animals immunized with Aβ. […] To definitively establish that antibodies were not playing a role, 16-month-old J20 mice bred to μMT B-cell deficient mice were immunized with MOG 35-55 in CFA followed by administration of Pertussis toxin.

microglial phagocytosis = details: Cha, A. et al. (2001) GLIA 33(1):87-95; cited from earlier work
APP non-transgenic mice = assay: Microglial activation in APP non-transgenic mice; assay type: in vivo; details: parenteral with CFA/PT or nasal
Aβ40 and Aβ42 [3] = assay: Total brain Aβ by sandwich ELISA, J20 APP transgenic mice; assay type: in vivo
[4] = immunization in CFA + pertussis toxin, APP transgenic mice
[5] = μMT B-cell deficient J20 APP+ mice
[6] = μMT B-cell deficient APP+ mice, CFA + Pertussis toxin
[7] = Subcutaneous (CFA/P.T.), B-deficient mice
[8] = subcutaneous (footpad) immunization in CFA + pertussis toxin, J20 APP transgenic mice, scale 0-5
[9] = level of OD at titer of 1:500 IgG, subcutaneous immunization in CFA + pertussis toxin, J20 APP transgenic mice
[10] = nasal immunization, J20 APP transgenic mice

Substance: myelin oligodendrocyte glycoprotein (MOG) peptide (amino acids 35-55) (MEVGWYRSPFSRVVHLYRNGK; UniProt Q61885 63-83, looked up, fragment)
- reduction of total brain Aβ (ELISA) / total amyloid load vs. control (Aβ40 and Aβ42 [1]; [4]): 94%
- reduction of total brain Aβ (ELISA) compared to Aβ 1-40 immunized mice (Aβ40 and Aβ42 [1]; [4]): 86%
- Total brain Aβ (Aβ40 and Aβ42 [1]; J20 APP transgenic mice): 8.4 ± 2.1 ^b ng/ml
- Total brain Aβ (Aβ40 and Aβ42 [1]; [5]): 11.4 ± 2.7 ^b ng/ml
- reduction in amyloid compared to control by ELISA for total brain amyloid (Aβ40 and Aβ42 [1]; [6]): 90%
- reduction of staining for Aβ fibril in the hippocampus (thioflavin S) compared to mice immunized with Aβ 1-40 (Aβ fibrils; [4]): 73%
- reduction of staining for Aβ fibril in the hippocampus (thioflavin S) vs. controls (Aβ fibrils; [4]): 92%
- % Area of thioflavin positive Aβ plaques (hippocampus) (Aβ fibrils; J20 APP transgenic mice): 0.22 ± 0.1 ^b %
- % Area of thioflavin positive Aβ plaques (hippocampus) (Aβ fibrils; [5]): 0.27 ± 0.04 ^b %
- reduction in amyloid compared to control by ThS staining (Aβ fibrils; [6]): 90%
- CD3, number of cells per hippocampal region ([2]; Subcutaneous (CFA/P.T.)): 142 ± 19 ^iv cells per hippocampal region
- CD11b, number of cells per hippocampal region ([2]; Subcutaneous (CFA/P.T.)): 349 ± 34.3 ^iv cells per hippocampal region
- IFN-γ, number of cells per hippocampal region ([2]; Subcutaneous (CFA/P.T.)): 109 ± 7 ^iv cells per hippocampal region
- IL-10, number of cells per hippocampal region ([2]; Subcutaneous (CFA/P.T.)): 21 ± 9 ^ii cells per hippocampal region
- M-CSFR, number of cells per hippocampal region ([2]; Subcutaneous (CFA/P.T.)): 79 ± 5 ^i cells per hippocampal region
- TGF-β, number of cells per hippocampal region ([2]; Subcutaneous (CFA/P.T.)): 20 ± 5 ^iii cells per hippocampal region
- CD3, number of cells per hippocampal region [2, 7]: 195 ± 12 ^iv cells per hippocampal region
- CD11b, number of cells per hippocampal region [2, 7]: 462 ± 23 ^iv cells per hippocampal region
- IFN-γ, number of cells per hippocampal region [2, 7]: 119 ± 18 ^iv cells per hippocampal region
- IL-10, number of cells per hippocampal region [2, 7]: 25 ± 5 ^i cells per hippocampal region
- M-CSFR, number of cells per hippocampal region [2, 7]: 77 ± 6 ^i cells per hippocampal region
- TGF-β, number of cells per hippocampal region [2, 7]: 22 ± 8 ^ii cells per hippocampal region
- activated microglia (CD11b) in hippocampus [2]: 349±34.3 cells/hippocampus region
- EAE score (J20 APP transgenic mice; [8]): 2.5 ± 0.8
- EAE score (J20 APP transgenic mice; subcutaneous immunization in CFA + pertussis toxin, μMT B-cell deficient J20 APP+ mice): 2.7 ± 0.4
- anti-Aβ antibodies (Aβ; MOG immunization): not detected
- Anti-Aβ Antibody (Aβ; [9]): 0 OD
- Anti-Aβ Antibody (Aβ; level of OD at titer of 1:500 IgG, subcutaneous, μMT B-cell deficient J20 APP+ mice): 0 OD

Substance: INF-gamma: Th1-type cytokine INF-gamma
- augmentation of microglial phagocytosis (microglial phagocytosis): 75 % above untreated

Substance: human β-amyloid peptide (Aβ amino acids 1-40)
- Total brain Aβ (Aβ40 and Aβ42 [1]; J20 APP transgenic mice): 60.8 ± 16 ^a ng/ml
- % Area of thioflavin positive Aβ plaques (hippocampus) (Aβ fibrils; J20 APP transgenic mice): 0.83 ± 0.3 ^a %
- CD3, number of cells per hippocampal region ([2]; Subcutaneous (CFA/P.T.)): 10 ± 2 cells per hippocampal region
- CD11b, number of cells per hippocampal region ([2]; Subcutaneous (CFA/P.T.)): 106 ± 27 cells per hippocampal region
- IFN-γ, number of cells per hippocampal region ([2]; Subcutaneous (CFA/P.T.)): 9 ± 2 cells per hippocampal region
- IL-10, number of cells per hippocampal region ([2]; Subcutaneous (CFA/P.T.)): 44 ± 5 cells per hippocampal region
- M-CSFR, number of cells per hippocampal region ([2]; Subcutaneous (CFA/P.T.)): 34 ± 11 cells per hippocampal region
- TGF-β, number of cells per hippocampal region ([2]; Subcutaneous (CFA/P.T.)): 41 ± 5 cells per hippocampal region
- activated microglia (CD11b) in hippocampus [2]: 106±27 cells/hippocampus region
- occurrence of EAE (J20 APP transgenic mice): no EAE was observed
- EAE score (J20 APP transgenic mice; [8]): 0
- Anti-Aβ Antibody (Aβ; [9]): 0.75 OD

Substance: glatiramer acetate [GA]
- reduction of total brain Aβ (ELISA) / total amyloid load vs. control (Aβ40 and Aβ42 [1]; [4]): 70%
- Total brain Aβ (Aβ40 and Aβ42 [1]; J20 APP transgenic mice): 39.1 ± 12.8 ^c ng/ml
- microglial activation in APP non-transgenic mice (APP non-transgenic mice): No microglial activation
- reduction of staining for Aβ fibril in the hippocampus (thioflavin S) vs. controls (Aβ fibrils; [4]): 92%
- effect on Aβ fibrils / fibrillar Aβ staining (Aβ fibrils; mouse, in vivo): did not affect Aβ fibrils
- % Area of thioflavin S positive Aβ plaques (hippocampus) (Aβ fibrils; [10]): 2.06 ± 0.8%
- % Area of thioflavin positive Aβ plaques (hippocampus) (Aβ fibrils; J20 APP transgenic mice): 0.26 ± 0.1 ^d %
- effect on total Aβ levels in the brain (Aβ40 and Aβ42 [3]; nasal administration): slight reduction
- Total brain Aβ (Aβ40 and Aβ42 [3]; [10]): 97.6 ± 15.5 ng/mL
- CD3, number of cells per hippocampal region ([2]; NASAL): 35 ± 19 cells per hippocampal region
- CD11b, number of cells per hippocampal region ([2]; NASAL): 136 ± 12 cells per hippocampal region
- IFN-γ, number of cells per hippocampal region ([2]; NASAL): 53 ± 3 ^i cells per hippocampal region
- IL-10, number of cells per hippocampal region ([2]; NASAL): 75 ± 7 cells per hippocampal region
- M-CSFR, number of cells per hippocampal region ([2]; NASAL): 30 ± 9 cells per hippocampal region
- TGF-β, number of cells per hippocampal region ([2]; NASAL): 77 ± 10 cells per hippocampal region
- CD3, number of cells per hippocampal region ([2]; Subcutaneous (CFA/P.T.)): 61 ± 12 ^i cells per hippocampal region
- CD11b, number of cells per hippocampal region ([2]; Subcutaneous (CFA/P.T.)): 227 ± 61 ^i cells per hippocampal region
- IFN-γ, number of cells per hippocampal region ([2]; Subcutaneous (CFA/P.T.)): 85 ± 11 ^iv cells per hippocampal region
- IL-10, number of cells per hippocampal region ([2]; Subcutaneous (CFA/P.T.)): 59 ± 7 cells per hippocampal region
- M-CSFR, number of cells per hippocampal region ([2]; Subcutaneous (CFA/P.T.)): 57 ± 8 cells per hippocampal region
- TGF-β, number of cells per hippocampal region ([2]; Subcutaneous (CFA/P.T.)): 31 ± 7 cells per hippocampal region
- occurrence of EAE (J20 APP transgenic mice): no clinical EAE
- EAE score (J20 APP transgenic mice; [10]): 0
- EAE score (J20 APP transgenic mice; [8]): 0
- Anti-Aβ Antibody (Aβ; level of OD 450 at titer of 1:50 IgG, nasal immunization, J20 APP transgenic mice): 0 OD 450
- Anti-Aβ Antibody (Aβ; [9]): 0 OD

Substance: bovine serum albumin [BSA/CFA]
- activated microglia (CD11b) in hippocampus [2]: 76±17 cells/hippocampus region
- occurrence of EAE (J20 APP transgenic mice): no EAE was observed

Reference: patent publication US20060229233A1, “Compositions and methods for treating neurological disorders” (ID Biomedical Corporation, priority 2004, published 2006)
